Experimental data published in US20260207535A1, “CRIBLAGE INHIBITEURS USP8” (COMMISSARIAT A L'ENERGIE ATOMIQUE ET AUX ENERGIES …, priority 2022, published 2026).
Where two headings read alike, the source gives them in different places.

Legend:
[1] = target: T1, Full length USP8 (USP8FL) (Homo sapiens, UniProt P40818); assay: USP8FL (full length USP8) enzymatic inhibition, Ub-Rhodamine 110 hydrolysis in L-cysteine buffer; type: biochemical; conditions: USP8 FL 75 nM, Ub-Rho 0.1 μM, L-cysteine buffer
T1 construct: purchased BostonBiochem E-520
T1 sequence (P40818 1-1118): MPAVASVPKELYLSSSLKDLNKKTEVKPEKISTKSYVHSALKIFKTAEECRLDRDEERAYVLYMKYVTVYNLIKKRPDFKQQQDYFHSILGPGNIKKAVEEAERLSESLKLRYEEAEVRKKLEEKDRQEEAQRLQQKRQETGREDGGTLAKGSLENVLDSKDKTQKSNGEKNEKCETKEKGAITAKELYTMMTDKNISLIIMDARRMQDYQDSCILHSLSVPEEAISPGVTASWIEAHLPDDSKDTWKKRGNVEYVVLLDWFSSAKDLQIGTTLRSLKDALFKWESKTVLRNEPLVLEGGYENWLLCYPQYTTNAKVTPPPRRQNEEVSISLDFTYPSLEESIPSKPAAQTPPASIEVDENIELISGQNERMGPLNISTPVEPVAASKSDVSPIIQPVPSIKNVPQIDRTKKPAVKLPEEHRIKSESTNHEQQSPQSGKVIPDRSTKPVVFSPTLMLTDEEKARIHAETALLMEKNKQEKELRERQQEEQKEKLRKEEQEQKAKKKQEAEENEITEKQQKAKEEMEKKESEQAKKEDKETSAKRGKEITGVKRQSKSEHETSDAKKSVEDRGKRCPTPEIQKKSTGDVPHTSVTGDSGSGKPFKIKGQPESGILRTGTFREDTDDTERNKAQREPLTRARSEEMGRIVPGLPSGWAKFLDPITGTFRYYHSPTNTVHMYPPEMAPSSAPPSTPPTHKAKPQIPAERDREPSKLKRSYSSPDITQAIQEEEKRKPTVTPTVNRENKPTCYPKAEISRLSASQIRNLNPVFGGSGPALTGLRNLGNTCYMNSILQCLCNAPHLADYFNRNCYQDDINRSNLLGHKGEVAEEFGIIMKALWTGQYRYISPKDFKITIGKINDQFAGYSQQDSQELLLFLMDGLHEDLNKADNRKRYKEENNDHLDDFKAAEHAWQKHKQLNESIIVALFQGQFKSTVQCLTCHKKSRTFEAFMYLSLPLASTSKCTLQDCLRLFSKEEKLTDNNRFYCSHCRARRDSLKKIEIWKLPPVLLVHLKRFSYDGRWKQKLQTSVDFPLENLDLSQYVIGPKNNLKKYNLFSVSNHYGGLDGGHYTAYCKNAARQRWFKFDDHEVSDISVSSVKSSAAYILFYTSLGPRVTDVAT
Experimental: USP8 FL (USP8 Full Length) was incubated at a concentration of 75 nM in the presence of Ub-Rho (UBIQUIGENT ref. 60-0117-050) at a final concentration of 0.1 μM, in conditions ensuring linearity of enzyme activity throughout the assay in a specific buffer. Compounds were added to the reaction mix at different doses just before the substrate. The enzymatic reaction kinetics were monitored by measuring fluorescence elicited by the hydrolysis of Ub-Rho over 30 min.
In this setup, an in-house purified catalytic domain of USP8 (USP8CD) was used at a concentration of 80 nM in the presence of the artificial substrate Ubiquitin-Rhodamine 110 (Ub-Rho) (ref: 60-0117-050 Ubiquigent) at a final concentration of 0.1 μM, in conditions ensuring linearity of enzyme activity throughout the assay incubation time. Enzymatic assay was performed in a Tris HCl buffer (40 mM Tris HCl pH 7.4, Ovalbumine 0.5 mg/ml, Cysteine HCl 5.5 mM). Compounds to be tested were added to the reaction mix and incubated with enzyme for 20 min, before the substrate. The enzymatic reaction kinetics were monitored by measuring fluorescence elicited by the hydrolysis of the peptidyl Ub-Rho over 30 minutes. The negative control was the solvent DMSO at 1%.
Full length USP8 (USPBFL) (BostonBiochem ref. E-520) were used at a concentration of 75 nM in the presence of a ubiquitin substrate, i.e., the Ub-Rhodamine 110 (Ub-Rho) (Ubiquigent ref. 60-0117-050) at a final concentration of 0.1 μM. Enzymatic assays were performed as described for USP8-CD except that USP-FL was used at a concentration of 75 nM. The compounds were used at a final concentration of 0.1, 1, 5, 10, 50 and 100 μM in DMSO 0.5%. The USP8 catalytic activity was monitored both before adding the substrate (TO) and after twenty minutes of incubation at room temperature (Final Time TF). The enzymatic reaction kinetics were monitored by measuring fluorescence elicited by the hydrolysis of the Ub-Rho bound over 30 minutes.

AtT-20 pituitary cells = assay: Inhibition of ACTH secretion in pituitary cells (ACTH EIA on supernatant); type: cell-based, mouse
Experimental: ACTH release (percent comparison to DMSO control). Briefly, 12,500 AtT-20 cells per well were seeded in a 96-well plate. After 24 hours exposure, cells were treated with each compound at the indicated final concentration, or with DMSO alone (control condition compound solvent) or with corticotropin releasing factor (indicated CRF) at 100 nM. After a 24-hour treatment, cell supernatants were collected and stored at −80° C., prior to quantification of ACTH concentration using ACTH chemiluminescent EIA kit (Phoenix Pharmaceuticals, Inc.). Determination of ACTH concentrations was based on the best-fitting ACTH standard curve and P values were calculated using one-way ANOVA, using Prism 9 software (GraphPad Software, Inc.) ns (P=0.12). **P<0.002. ***P<0.001. All compounds were tested in technical triplicates. One representative experiment out of three is presented.
FIG. 4: illustrates a decrease of ACTH secretion by AtT-20 cells after 24-hour treatment of halogenated salicylanilides. 12,500 AtT-20 cells per well were seeded in a 96-well plate. […] After a 24-hour treatment, cell supernatants were collected and stored at −80° C., prior to quantification of ACTH concentration using ACTH chemiluminescent EIA kit (Phoenix Pharmaceuticals, Inc.). Determination of ACTH concentrations was based on the best-fitting ACTH standard curve and P values were calculated by ordinary one-way ANOVA using Prism 6 software (GraphPad Software, Inc), ns (not significant), **** P<0.0001. Compounds were tested in technical triplicates.
12,500 AtT-20 cells per well were seeded in a 96-well plate. After 24 hours, cells were treated with compounds (corresponding chemical formula are indicated in Table 1) at 25 μM final concentration, or with DMSO alone (compound solvent). After a 24-hour treatment, cell supernatants were collected and stored at −80° C., prior to quantification of ACTH concentration using ACTH chemiluminescent EIA kit (Phoenix Pharmaceuticals, Inc.). Determination of ACTH concentrations was based on the best-fitting ACTH standard curve and P values were calculated by ordinary one-way ANOVA using Prism 6 software (GraphPad Software, Inc), ns (not significant), *P<0.05, ***P<0,0001. Compounds were tested in technical triplicates.
Mouse AtT-20 pituitary cell line were used as a powerful and well-characterized model to monitor ACTH secretion using an enzyme immunoassay (EIA) kit.
Mouse AtT-20 cells were obtained from the American Type Culture Collection and maintained on DMEM containing 10% fetal bovine serum, 100 μg/mL streptomycin and 100 U/mL penicillin at 37° C. with 5% CO2 after recovery from long-term storage on liquid nitrogen-vapor phase.
The ACTH secretion levels of AtT-20 cell culture was monitored on the supernatant of AtT-20 cells treated or not by increasing doses of compounds belonging to the family of halogenated salicylanilides chemicals.
1.25×10^4 AtT20 cells were seeded on polylysine-coated 96-well culture vessels on 150 μL of complete medium. After 24 hours, cells were treated with stock compounds to a final DMSO concentration of 0.5%. After 24 hours of treatment, cell culture supernatant was collected, cleared for 10 min at 1000×g at 4° C., diluted or not in assay buffer (Phoenix Peptide ACTH EIA EK-001-21) and frozen at −80° C. for subsequent processing according to the instructions of the kit's manufacturer.

AtT-20 cells = assay: Cytotoxicity towards AtT-20 cells (PrestoBlue viability assay); conditions: 25 μM, 24-hour exposure
From the text: The AtT-20 cells viability was monitored in the conditions used to follow ACTH secretion. The viability of treated cells was concomitantly evaluated using a Cell Viability Reagent (monitoring of the cells' reducing capacity) (PrestoBlue® assay, Molecular Probes) with the aim to determine non-toxic doses of cell treatment.
After the collection of the supernatant sample for the ACTH assay in the previous step, cells were supplemented with the PrestoBlue™ cell viability reagent (Invitrogen™ A13261) at 10% final volume, and re-incubated at 37° C. for 30 minutes. Fluorescence was then read with a FLUOstar OPTIMA microplate reader.

[2] = read-out: USP8FL inhbition IC50 [μM] (CI: Confidence Interval)
[3] = Mus musculus, AtT20, 25 μM, 24-hour treatment, AtT-20 supernatant, read-out: ACTH secretion % of control (DMSO) at 25 μM

In the case of `O=C(Nc1cc(Cl)cc(Cl)c1O)c1c(O)c(Cl)cc(Cl)c1Cl` [Oxyclozanide, reference compound], the IC50 [1, 2] is reported as 7.68 µM, the “inhibition of ACTH at 25 μM, in words (FIG. 4, FIG. 5)” value (“inhibition of ACTH at 25 μM, in words” below) (AtT-20 pituitary cells; 25 μM, 24-hour treatment) is reported as “significant inhibition” and the activity at 25 µM (AtT-20 pituitary cells; [3]) is reported as 41%. The “AtT-20 cell viability (PrestoBlue assay) % of control (DMSO) at 25 μM Mean (SD)” value (AtT-20 cells) was 98.08 (14.38) %.

With `O=C(Nc1ccccc1)c1ccccc1O` [Salicylanilide, reference compound] the IC50 ([1]; USP8FL inhbition IC50 [μM] (CI: Confidence Interval)) was over 40 µM, the “inhibition of ACTH at 25 μM, in words” value (AtT-20 pituitary cells; 25 μM, 24-hour treatment) was “ineffective” and the activity at 25 µM (AtT-20 pituitary cells; Mus musculus, AtT20, 24 h, read-out: ACTH secretion % of control (DMSO) at 25 μM, 25 μM, 24-hour treatment, AtT-20 supernatant) was 99%. The “AtT-20 cell viability (PrestoBlue assay) % of control (DMSO) at 25 μM Mean (SD)” value (AtT-20 cells) was 105.4 (14.77) %.

For `O=C(Nc1ccc(O)cc1)c1cc(I)ccc1O` [Z69118571], the IC50 [1, 2] was over 100 µM, the “inhibition of ACTH at 25 μM, in words” value (AtT-20 pituitary cells; 25 μM, 24-hour treatment) was “ineffective” and the activity at 25 µM (AtT-20 pituitary cells; [3]) was 101%. The “AtT-20 cell viability (PrestoBlue assay) % of control (DMSO) at 25 μM Mean (SD)” value (AtT-20 cells) was 106.7 (20.87) %.

For `O=C(Nc1ccc(Cl)cc1C(=O)c1ccccc1F)c1ccc(=O)[nH]c1` [Z220328740], the IC50 [1, 2] was over 40 µM, the “inhibition of ACTH at 25 μM, in words” value (AtT-20 pituitary cells; 25 μM, 24-hour treatment) was “ineffective” and the “ACTH secretion % of control (DMSO) at 25 μM” value (AtT-20 pituitary cells; 25 μM, 24-hour treatment, AtT-20 supernatant) was 82%. The “AtT-20 cell viability (PrestoBlue assay) % of control (DMSO) at 25 μM Mean (SD)” value (AtT-20 cells) was 102.9 (15.16) %.

`O=C(CSc1ccccc1F)Nc1cccc(OCc2ccccn2)c1` [Z393438700] was tested, and the IC50 [1, 2] was over 40 µM, the “inhibition of ACTH at 25 μM, in words” value (AtT-20 pituitary cells; 25 μM, 24-hour treatment) was “ineffective” and the activity at 25 µM (AtT-20 pituitary cells; [3]) was 92%. The “AtT-20 cell viability (PrestoBlue assay) % of control (DMSO) at 25 μM Mean (SD)” value (AtT-20 cells) was 101.1 (16.04) %.

For `O=C(NCc1cccc(OCc2ccccn2)c1)c1csc(Br)c1` [Z424433412], the IC50 [1, 2] was over 40 µM, the “inhibition of ACTH at 25 μM, in words” value (AtT-20 pituitary cells; 25 μM, 24-hour treatment) was “ineffective” and the activity at 25 µM (AtT-20 pituitary cells; [3]) was 80%. For the same compound, the inhibition at 25 µM (AtT-20 pituitary cells; Mus musculus, AtT20, 25 μM, 24-hour treatment, p<0.05) was 20% and the “AtT-20 cell viability (PrestoBlue assay) % of control (DMSO) at 25 μM Mean (SD)” value (AtT-20 cells) was 98.93 (14.69) %.

With `Cc1ccc(NC(=O)Cn2ccccc2=O)c(OCc2ccccc2)c1` [Z738998144] the IC50 [1, 2] was over 40 µM, the “inhibition of ACTH at 25 μM, in words” value (AtT-20 pituitary cells; 25 μM, 24-hour treatment) was “ineffective” and the activity at 25 µM (AtT-20 pituitary cells; [3]) was 90%. For the same compound, the “AtT-20 cell viability (PrestoBlue assay) % of control (DMSO) at 25 μM Mean (SD)” value (AtT-20 cells) was 95.98 (15.33) %.
